US6043242A, “Imidazopyridazines” (Byk Gulden Lomberg Chemische Fabrik GmbH, priority 1996, dated 2000)
Values after ≈ are worked out from the molar mass of the structure shown. Where a name gives a salt, the structure may show the parent alone.

Tests used:
Helicobacter pylori = experiment: activity against Helicobacter pylori (MIC50), Columbia agar, growth period of 4 days; assay type: cell-based; details: 96 h, approx. MIC 50 values, Columbia agar (Oxoid)
Text: The compounds of the formula I were investigated with respect to their activity against Helicobacter pylori following the methodology described by Tomoyuki Iwahi et al. (Antimicrobial Agents and Chemotherapy, 1991, 490-496) using Columbia agar (Oxoid) and with a growth period of 4 days. The approx. MIC 50 values listed in Table A below resulted here for the compounds investigated (the stated numbers of the compounds agree with the example numbers in the description).

Helicobacter fells = experiment: in vivo activity against Helicobacter fells in the mouse (elimination rate); details: po, 96 h, administered orally at 3×50 mg/kg over the course of 4 days
Experimental: With respect to their in vivo activity against Helicobacter fells in the mouse, the compounds of the formula I were investigated following the methodology described by E. Dick-Hegedus and A. Lee (Scand. J. Gastroenterol. 1991, 26, 909-915). The substances were administered orally at 3×50 mg/kg over the course of 4 days. The elimination rates listed in Table A below resulted here for the compounds investigated: […]

SMILES | MIC50 (Helicobacter pylori) [µg/mL] | responders at 50 mg/kg (Helicobacter fells) [%]
Cc1c(SCCCSc2ccc3ncc([N+](=O)[O-])n3n2)ccnc1CO [Compound 1, {3-Methyl-4-[3-(3-nitroimidazo[1,2-b]pyridazin-6-ylsulfanyl)propylsulfanyl]pyridin-2-yl}methanol] | 0.05 (≈ 0.128 µM) | 100
Cc1c(SCCCSc2ccc3ncc([N+](=O)[O-])n3n2)ccnc1CSc1ncccn1 [Compound 4, 6-{3-[3-Methyl-2-(pyrimidin-2-ylsulfanylmethyl)-pyridin-4-ylsulfanyl]propyisulfanyl)3-nitro-imidazo[1,2-b]pyridazine] | 0.1 (≈ 0.206 µM) | 100
COCCOCCSCc1nccc(SCCCSc2ccc3ncc([N+](=O)[O-])n3n2)c1C [Compound 9, 6-(3-}2-[2-(2-Methoxyethoxy)ethylsulfanylmethyl]-3-methylpyridin-4-ylsulfanyl}-propylsulfanyl)-3-nitroimidazo[1,2-b]pyridazine fumarate] | 0.1 | 100
Cc1c(OCCCOc2ccc3ncc([N+](=O)[O-])n3n2)cc[n+]([O-])c1C [Compound 13, 6-[3-(2,3-Dimethyl-1-oxypyridin-4-yloxy)propoxy]-3-nitroimidazo[1,2-b]pyridazine] | 0.5 (≈ 1.39 µM) | 100

More lines, main results first:

MIC50 (Helicobacter pylori) [µg/mL] | SMILES | responders at 50 mg/kg (Helicobacter fells) [%]
0.05 (≈ 0.133 µM) | Cc1c(OCCCSc2ccc3ncc([N+](=O)[O-])n3n2)ccnc1CO [Compound 15, {3-Methyl-4-[3-(3-nitroimidazo[1,2-b]pyridazin-6-ylsulfanyl)propoxy]pyridin-2-yl}-methanol] | 100
0.1 (≈ 0.19 µM) | CN(CCSc1ccc2ncc([N+](=O)[O-])n2n1)c1ccnc(CSc2nc3ccccc3[nH]2)c1Cl [Compound 17] | 100
0.1 (≈ 0.205 µM) | CN(CCSc1ccc2ncc([N+](=O)[O-])n2n1)c1ccnc(CSc2ncccn2)c1Cl [Compound 18] | 100
0.05 (≈ 0.1 µM) | Cc1ccnc(SCc2nccc(SCCCSc3ccc4ncc([N+](=O)[O-])n4n3)c2C)n1 [Compound 25, 6-{3-[3-Methyl-2-(4-methyl-pyrimidin-2-ylsulfanylmethyl)-pyridin-4-ylsulfanyl]-propylsulfanyl}-3-nitroimidazo[1,2-b]pyridazine] | 100
0.1 | CN(CCOc1ccc2ncc([N+](=O)[O-])n2n1)c1ccnc(CSc2nc3ccccc3[nH]2)c1Cl.Cl [Compound 27, [2-(1H-benzimidazol-2-ylsulfanylmethyl)-3-chloropyridin-4-yl]-methyl-[2-(3-nitroimidazo[1,2-b]pyridazin-6-yloxy)-ethyl]amine hydrochloride] | 100
